These results are taken from PubChem BioAssay AID652214 (Broad Institute, 2013).

Each structure is given as a SMILES string. Calls of active or inactive are those of the source.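 How the source made its calls: active means AC50 of 30 µM or below; inactive means AC50 above 30 µM.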

The target of the assay is Thioredoxin (Homo sapiens) (UniProt P10599). As to the kind of experiment: TRX disulfide reduction blockade – biochemical, insulin turbidity, dry powder samples, counter-screen for PDI inhibitor project, dose response (AID 652214). Particulars: purified thioredoxin, insulin reduction turbidity OD650.
Chain of Thioredoxin (Homo sapiens) (P10599 whole entry, looked up): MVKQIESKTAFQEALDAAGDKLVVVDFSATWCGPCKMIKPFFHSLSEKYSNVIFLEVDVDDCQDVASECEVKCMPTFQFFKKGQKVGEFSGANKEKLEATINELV
In general, AC50 refers to the concentration at which the activity in the assay is half-maximal. Regarding `CC(C)OC(=O)C1(CCOc2ccccc2)CCN(Cc2ccc(O)c(Cl)c2)CC1`, the AC50 was > 30 µM (inactive).
As for `C/C1=C\[C@@H](O)C(C)(C)CCCC2(C)OC2C[C@@H]1OC(=O)c1ccc(O)cc1` (some centres not stated), the figure is 3 µM.
The same measure for `C/C1=C\C[C@H](OC(=O)c2ccc(O)cc2)/C(C)=C/[C@@H](O)C(C)(C)CCC1`: > 30 µM (inactive).
The same measure for `CCOC(=O)C1(CCOc2ccccc2)CCN(Cc2ccc(O)cc2)CC1`: > 30 µM (inactive).
As for `CC(C)(C)OC(=O)C1(CCOc2ccccc2)CCN(Cc2ccc(O)c(Cl)c2)CC1`, the AC50 was > 30 µM (inactive).
Consider `CCOC(=O)C1(CCOc2ccccc2)CCN(C(=O)c2ccc(O)c(Cl)c2)CC1`, for which the AC50 is > 30 µM (inactive).
As for `CCOC(=O)c1c(CN2CCN(CCO)CC2)n(-c2ccccc2)c2cc(Br)c(O)cc12`, the figure is > 30 µM (inactive); as for `O=C(NC1CCCC1)C1(CCOc2ccccc2)CCN(Cc2ccc(O)c(Cl)c2)CC1`, > 30 µM (inactive).
As for `O=C(Nc1ccccc1)C1(CCOc2ccccc2)CCN(Cc2ccc(O)c(Cl)c2)CC1`, the figure is > 30 µM (inactive).
The same measure for `CCOC(=O)C1(CCOc2ccccc2)CCN(Cc2ccc(O)c(Cl)c2)CC1`: > 30 µM (inactive); for `CCN(C)C(=O)C1(CCOc2ccccc2)CCN(Cc2ccc(O)c(Cl)c2)CC1`: > 30 µM (inactive).
On to `CCOC(=O)C1(CCOc2ccccc2)CCN(Cc2ccc(OC)c(Cl)c2)CC1`, for which the AC50 is > 30 µM (inactive).
